# Assay results as given in publication PMC12475274, “Harnessing indole scaffolds to identify small-molecule IRE1α inhibitors modulating XBP1 mRNA splicing” (Nature Communications, 2025).
# “And” between values parts separate entries of the source, which are not always exact repeats. Equal values may be shown once. “Also recorded” adds a separate entry of the source. Read-outs that look alike come from different tables or passages of the source.
# Assays:
# [1] = molecular target: T1, dephosphorylated IRE1α (547–977) (Homo sapiens, UniProt O75460); experiment: FRET-based IRE1α RNase activity assay, dephosphorylated IRE1α; format: biochemical; conditions: for IC50: FRET assay; for inhibition at 50 µM: read-out: IRE1α inhibition%
# T1 construct: Human IRE1α kinase and RNase domain (residues 547–977) was subcloned into pLIB plasmid; His tag (with TEV cleavage site) (N, cleaved yes); made in house; host or cells: Sf9 insect cells, baculovirus (Bac-to-Bac)
# Procedure: (§1) Human IRE1α kinase and RNase domain (residues 547–977) was subcloned into pLIB plasmid with a His tag and TEV cleavage site, and expressed using Bac-to-Bac expression system. The primers used are listed in Supplementary Table S3. The protein purification was performed following established procedures. Briefly, Sf9 cells were infected with baculovirus and incubated at 27 °C 110 rpm for 72 h. The cells were collected by centrifugation at 4000 × g for 15 min and the cell pellet was resuspended in lysis buffer (50 mM HEPES pH 7.5, 300 mM NaCl, 10% glycerol, 1 mM MgCl2, 1 mM TCEP, 5 mM imidazole), then supplemented with 1:10,000 benzonase (Sigma, E1014), 1 tablet/25 mL […]™ Protease Inhibitor Cocktail tablets (Sigma, S8830) and 1 mM PMSF before lysed by sonication at 4 °C. […] The protein elution was incubated with TEV protease to remove His tag at 4 °C overnight. Then the sample was diluted 1:6 in buffer (50 mM HEPES pH 7.5, 1 mM TCEP, 5% glycerol) and loaded onto a 5 mL pre-packaged Q HP anion exchange column (Cytiva, HiTrap Q HP) pre-equilibrated with QA buffer (50 mM HEPES pH 7.5, 50 mM NaCl, 1 mM TCEP, 5% glycerol). The unphosphorylated and phosphorylated protein was separated by eluting the protein with a very shallow gradient with 0-30% buffer QB (50 mM HEPES pH 7.5, 1 M NaCl, 1 mM TCEP, 5% glycerol) over 80 CV. Different peaks were collected separately and verified by LC-MS. The fully phosphorylated fraction was collected and further purified by size exclusion chromatography (Cytiva, HiLoad 16/600 Superdex 200 pg,) with SEC buffer (25 mM HEPES pH 7.5, 250 mM NaCl, 1 mM TCEP, 10% glycerol) and fractioned as monomeric peak. The rest protein fraction from the Q HP anion exchange column was incubated with Lambda protein phosphatase (New England BioLabs, P0753S) overnight at 4 °C, the dephosphorylation was confirmed by LC-MS. The unphosphorylated protein was further purified by size exclusion chromatography with the SEC buffer described above. The purified phosphorylated (p-IRE1α) and dephosphorylated (IRE1α) protein aliquots were stored at −80 °C for future usage.
# The dual-labeled RNA substrate with a FAM at 5’ and the BHQ-1 at 3’ containing the XBP1 sequence (5′FAM-[…]-3′BHQ1) was purchased from Integrated DNA Technologies (IDT). The FRET-based IRE1α RNase activity assay was carried out in reaction buffer containing 20 mM HEPES pH 7.5, 50 mM KOAc, 1 mM MgOAc2, 1 mM DTT, 0.05% v/v TritonX-100, at a total reaction volume of 20 μL in a 384-well black plate (4514, Corning). For unphosphorylated IRE1α (IRE1α), a final concentration of 40 nM IRE1α protein and 100 nM RNA substrate was used. For phosphorylated IRE1 (p-IRE1α), a final concentration of 4 nM p-IRE1α protein and 200 nM RNA substrate was used. The indicated compound and IRE1α protein were incubated for 30 min at room temperature before the substrate was added to the reaction. The plate was then kinetically read over one hour at room temperature using a TECAN Spark plate reader. The measurement was carried out using the fluorescence top reading mode at the excitation wavelength of 485 nm and the emission wavelength of 535 nm with a 10 nm excitation and emission bandwidth. The linear part of the reaction curve was adopted and fitted with sample linear regression to obtain the slope, and the slope was adopted to reflect the reaction rate. The inhibition % was calculated by using the equation: inhibition% = 100 × (slope of DMSO control – slope of the sample)/(slope of DMSO control – slope of blank control), DMSO control: DMSO with protein and RNA substrate; Blank control: DMSO with RNA substrate. The IC50 values were calculated using the concentration-response model in GraphPad Prism 9. […]
# [2] = molecular target: T2, phosphorylated IRE1α (p-IRE1α) (Homo sapiens, UniProt O75460); experiment: FRET-based IRE1α RNase activity assay, phosphorylated IRE1α; format: biochemical
# T2 construct: Human IRE1α kinase and RNase domain (residues 547–977) was subcloned into pLIB plasmid; His tag (with TEV cleavage site) (N, cleaved yes); made in house; host or cells: Sf9 insect cells, baculovirus (Bac-to-Bac)
# Procedure: as §1
# The dual-labeled RNA substrate with a FAM at 5’ and the BHQ-1 at 3’ containing the XBP1 sequence (5′FAM-[…]-3′BHQ1) was purchased from Integrated DNA Technologies (IDT). The FRET-based IRE1α RNase activity assay was carried out in reaction buffer containing 20 mM HEPES pH 7.5, 50 mM KOAc, 1 mM MgOAc2, 1 mM DTT, 0.05% v/v TritonX-100, at a total reaction volume of 20 μL in a 384-well black plate (4514, Corning). For unphosphorylated IRE1α (IRE1α), a final concentration of 40 nM IRE1α protein and 100 nM RNA substrate was used. For phosphorylated IRE1 (p-IRE1α), a final concentration of 4 nM p-IRE1α protein and 200 nM RNA substrate was used. The indicated compound and IRE1α protein were incubated for 30 min at room temperature before the substrate was added to the reaction. The plate was then kinetically read over one hour at room temperature using a TECAN Spark plate reader. The measurement was carried out using the fluorescence top reading mode at the excitation wavelength of 485 nm and the emission wavelength of 535 nm with a 10 nm excitation and emission bandwidth. The linear part of the reaction curve was adopted and fitted with sample linear regression to obtain the slope, and the slope was adopted to reflect the reaction rate. The inhibition % was calculated by using the equation: inhibition% = 100 × (slope of DMSO control – slope of the sample)/(slope of DMSO control – slope of blank control), DMSO control: DMSO with protein and RNA substrate; Blank control: DMSO with RNA substrate. The IC50 values were calculated using the concentration-response model in GraphPad Prism 9.
# [3] = RNase activity, mean (± SEM), read-out: IRE1α IC50
# [4] = source data, unit from Fig. 3 / sheet Fig. 2b, read-out: IRE1a IC50, individual replicates (n1-n4)
# [5] = FRET assay, RNase activity, mean (± SEM), read-out: p-IRE1α IC50
# [6] = FRET assay, source data, unit from Fig. 3, read-out: p-IRE1a IC50, individual replicates (n1-n4)
# [7] = FRET assay at 50 μM, mean (± SEM)
# [8] = FRET assay at 50 μM, mean (± SEM), read-out: p-IRE1α inhibition%
# T1 sequence (O75460 547-977): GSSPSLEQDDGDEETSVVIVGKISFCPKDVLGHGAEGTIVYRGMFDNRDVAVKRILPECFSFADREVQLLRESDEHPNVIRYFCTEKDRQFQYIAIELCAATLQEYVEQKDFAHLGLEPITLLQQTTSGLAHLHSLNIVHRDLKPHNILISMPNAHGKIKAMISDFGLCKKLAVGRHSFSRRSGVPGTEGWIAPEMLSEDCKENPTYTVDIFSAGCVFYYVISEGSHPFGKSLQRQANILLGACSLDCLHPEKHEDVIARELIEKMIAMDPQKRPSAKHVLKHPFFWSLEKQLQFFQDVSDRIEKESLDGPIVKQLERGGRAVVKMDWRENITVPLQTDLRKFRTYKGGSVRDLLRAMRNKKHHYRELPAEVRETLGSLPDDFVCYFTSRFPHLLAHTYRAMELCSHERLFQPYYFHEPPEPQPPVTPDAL
# T2 sequence (O75460 547-977): as above
smiles,measurement,setting,value
Cc1c(CCC(=O)O)c2cc(-c3ccncc3)ccc2n1C(=O)c1ccccc1 [IA153],IC50,[1]; [3],2.16 µM
same,IC50,[1]; [4],2.9 µM and 1.77 µM and 1.82 µM
same,IC50,[2]; [5],11.6 µM
same,IC50,[2]; [6],12.4 µM and 15.4 µM and 6.99 µM
Cc1c(CCC(=O)O)c2cc(-c3cn[nH]c3)ccc2n1C(=O)c1ccccc1 [IA158],IC50,[1]; [3],0.7 µM
same,IC50,[1]; [4],0.708 µM and 0.693 µM
same,IC50,[2]; [5],2.34 µM
same,IC50,[2]; [6],3.18 µM and 1.5 µM
Cc1c(CCC(=O)O)c2cc(-c3ccccc3C#N)ccc2n1C(=O)c1ccccc1 [IA159],IC50,[1]; [3],6.22 µM and 6.23 µM
same,IC50,[1]; [4],5.53 µM and 6.93 µM
same,IC50,[2]; [5],28.3 µM
same,IC50,[2]; [6],34.9 µM and 21.7 µM
CC(=O)c1ccc(-c2ccc3c(c2)c(CCC(=O)O)c(C)n3C(=O)c2ccccc2)s1 [IA162],IC50,[1]; [3],4.73 µM
same,IC50,[1]; [4],3.28 µM and 6.18 µM
same,IC50,[2]; [5],15.1 µM
same,IC50,[2]; [6],15.8 µM and 14.4 µM
Cc1c(CCC(=O)O)c2cc(-c3ccc(O)cc3)ccc2n1C(=O)c1ccccc1 [IA163],IC50,[1]; [3],7.41 µM
same,IC50,[1]; [4],6.38 µM and 8.45 µM
same,p-IRE1α IC50,"[2]; FRET assay, RNase activity, mean (± SEM)",IC₅₀ not reached
same,IC50,[2]; [5],> 20 µM
Cc1c(CCC(=O)O)c2cc(Br)ccc2n1Cc1ccccc1 [IA164],effect on IRE1α RNase activity in the FRET assay,[1],did not show activity; also recorded: complete loss of activity
same,inhibition at 5.55556 µM,"[1]; IRE1a, 5.55556 μM",11.3%
same,inhibition(%),"[1]; IRE1a, 5.55556 μM",18.332% and 22.563% and 19.929%
same,effect on p-IRE1α RNase activity in the FRET assay,[2],did not show activity
same,inhibition(%),"[2]; p-IRE1a, 0.000847 μM",-3.310% and -10.444% and -6.973% and -11.312%
same,inhibition(%),"[2]; p-IRE1a, 0.00254 μM",-11.263% and -6.154% and -5.913% and -3.985%
same,inhibition(%),"[2]; p-IRE1a, 0.007621 μM",-3.888% and -1.575% and -3.262% and -6.925%
same,inhibition(%),"[2]; p-IRE1a, 0.022862 μM",-9.528% and -12.854% and -7.504% and -7.552%
same,inhibition(%),"[2]; p-IRE1a, 0.205761 μM",-14.011% and -13.481% and -9.046% and -6.299%
same,inhibition(%),"[2]; p-IRE1a, 0.617284 μM",-12.951% and -9.625% and -7.070% and -4.226%
same,inhibition(%),"[2]; p-IRE1a, 1.85185 μM",-7.504% and -4.708% and -6.877% and -5.527%
same,inhibition(%),"[2]; p-IRE1a, 5.55556 μM",-7.793% and -8.660% and -17.192% and -15.216%
Cc1c(CCC(=O)O)c2cc(Br)ccc2n1C(=O)C1CCCCC1 [IA165],effect on IRE1α RNase activity in the FRET assay,[1],decreased the inhibitory activity
same,inhibition at 0.617284 µM,"[1]; IRE1a, 0.617284 μM",36.9%
same,inhibition(%),"[1]; IRE1a, 0.617284 μM",46.932% and 53.398% and 47.875%
same,inhibition at 1.85185 µM,"[1]; IRE1a, 1.85185 μM",53.7%
same,inhibition(%),"[1]; IRE1a, 1.85185 μM",60.820% and 65.775% and 59.822%
same,inhibition at 5.55556 µM,"[1]; IRE1a, 5.55556 μM",76%
same,inhibition(%),"[1]; IRE1a, 5.55556 μM",76.919% and 67.673% and 77.366%
same,inhibition(%),"[1]; IRE1a, 16.6667 μM",82.061% and 76.393% and 74.507%
same,inhibition at 16.6667 µM,"[1]; IRE1a, 16.6667 μM, read-out: inhibition(%)",75.9%
same,inhibition(%),"[1]; IRE1a, 50 μM",53.077% and 49.468% and 70.447% and 68.706%
same,inhibition(%),"[2]; p-IRE1a, 0.000847 μM",-0.707% and 0.787% and -7.504% and -5.865%
same,inhibition(%),"[2]; p-IRE1a, 0.00254 μM",-6.491% and -3.358% and -4.226% and 3.246%
same,inhibition(%),"[2]; p-IRE1a, 0.007621 μM",-0.418% and -0.611% and -4.226% and 0.305%
same,inhibition(%),"[2]; p-IRE1a, 0.068587 μM",0.450% and 2.715% and -3.792% and 0.305%
same,inhibition(%),"[2]; p-IRE1a, 0.205761 μM",1.992% and 4.885% and 4.065% and 5.463%
same,inhibition at 1.85185 µM,"[2]; p-IRE1a, 1.85185 μM",34%
same,inhibition(%),"[2]; p-IRE1a, 1.85185 μM",36.843% and 31.203% and 36.891%
same,inhibition at 5.55556 µM,"[2]; p-IRE1a, 5.55556 μM",58.9%
same,inhibition(%),"[2]; p-IRE1a, 5.55556 μM",56.028% and 61.836% and 59.894%
same,inhibition at 16.6667 µM,"[2]; p-IRE1a, 16.6667 μM",90.7%
same,inhibition(%),"[2]; p-IRE1a, 16.6667 μM",88.753% and 83.846% and 83.803%
same,inhibition(%),"[2]; p-IRE1a, 50 μM",95.227% and 95.680% and 96.051%
same,inhibition at 50 µM,"[2]; p-IRE1a, 50 μM, read-out: inhibition(%)",94.7%
"COc1ccc2c(c1)c(CC(=O)O)c(C)n2C(=O)c1ccc(Cl)cc1 [Indomethacin, indomethacin, reference compound]",IRE1α inhibition%,"[1]; FRET assay at 50 μM, mean (± SEM), 50 µM",< 30%
same,inhibition at 50 µM,[1]; [7],≤ 50%
same,inhibition at 50 µM,[2]; [8],< 30%
CCc1c(C)n(C(=O)c2ccc(Cl)cc2)c2ccc(OC)cc12 [cms01],inhibition at 50 µM,[1]; [7],< 30%
same,inhibition at 50 µM,[2]; [8],< 30%
